# In ChEMBL document CHEMBL1201862, “PubChem BioAssay data set” (2004):
# Structures can show the parent of a compound that is named as a salt. Calls of active or inactive are those of the source.
# What was measured:
# [1] = test system: Candida albicans; assay: growth inhibition of azole-resistant C. albicans, dose response, CaCi-8 strain, Alamar Blue, dry powder, set 3 (AID 488905); format: functional, organism-based
# [2] = test system: Candida albicans; assay: reversal of fluconazole resistance in C. albicans, dose response, CaCi-2 strain, Alamar Blue, dry powder, set 3 (AID 488907); format: functional, organism-based
# [3] = molecular target: T1, Caspase-3 (Homo sapiens, UniProt P42574); format: functional
# T1 sequence (P42574 whole entry): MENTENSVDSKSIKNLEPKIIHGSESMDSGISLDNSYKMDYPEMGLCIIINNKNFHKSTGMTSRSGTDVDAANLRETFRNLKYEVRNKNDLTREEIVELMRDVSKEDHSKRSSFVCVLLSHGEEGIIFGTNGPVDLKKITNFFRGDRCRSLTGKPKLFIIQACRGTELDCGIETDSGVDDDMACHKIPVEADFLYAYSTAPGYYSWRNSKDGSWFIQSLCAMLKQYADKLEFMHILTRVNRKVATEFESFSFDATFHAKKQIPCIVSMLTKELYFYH
# [4] = molecular target: T2, Sentrin-specific protease 7 (Homo sapiens, UniProt Q9BQF6); format: functional;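 note: Luminescence-based dose-response confirmation of ultra-high-throughput screening hits, measuring inhibition of SENP7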
# T2 sequence (Q9BQF6 whole entry): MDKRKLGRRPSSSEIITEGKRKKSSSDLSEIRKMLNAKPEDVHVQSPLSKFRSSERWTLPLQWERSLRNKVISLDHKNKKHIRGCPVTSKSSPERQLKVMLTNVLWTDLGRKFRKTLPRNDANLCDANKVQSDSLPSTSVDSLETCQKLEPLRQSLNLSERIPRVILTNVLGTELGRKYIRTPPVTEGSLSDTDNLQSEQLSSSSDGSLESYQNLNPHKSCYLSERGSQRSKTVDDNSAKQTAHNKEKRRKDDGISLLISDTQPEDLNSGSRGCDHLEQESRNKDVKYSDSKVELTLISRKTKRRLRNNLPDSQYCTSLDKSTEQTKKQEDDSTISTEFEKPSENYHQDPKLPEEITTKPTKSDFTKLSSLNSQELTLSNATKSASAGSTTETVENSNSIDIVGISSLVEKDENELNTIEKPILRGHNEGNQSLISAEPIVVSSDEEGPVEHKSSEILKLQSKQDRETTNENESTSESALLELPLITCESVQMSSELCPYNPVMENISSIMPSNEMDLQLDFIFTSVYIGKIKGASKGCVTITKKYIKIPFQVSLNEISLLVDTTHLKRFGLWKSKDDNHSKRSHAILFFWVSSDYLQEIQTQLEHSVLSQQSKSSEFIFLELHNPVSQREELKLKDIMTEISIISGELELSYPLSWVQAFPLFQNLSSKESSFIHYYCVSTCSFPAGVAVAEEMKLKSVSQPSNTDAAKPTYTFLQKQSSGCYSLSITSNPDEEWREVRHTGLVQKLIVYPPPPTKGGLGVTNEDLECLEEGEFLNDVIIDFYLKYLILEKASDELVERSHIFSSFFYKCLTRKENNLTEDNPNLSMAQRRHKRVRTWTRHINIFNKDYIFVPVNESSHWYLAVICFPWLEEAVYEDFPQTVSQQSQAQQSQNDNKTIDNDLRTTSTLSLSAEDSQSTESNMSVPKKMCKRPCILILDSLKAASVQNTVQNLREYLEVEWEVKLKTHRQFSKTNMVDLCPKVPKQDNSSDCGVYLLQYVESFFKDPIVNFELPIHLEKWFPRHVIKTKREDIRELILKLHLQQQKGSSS
# [5] = molecular target: T3, Sentrin-specific protease 6 (Homo sapiens, UniProt Q9GZR1); format: functional
# T3 sequence (Q9GZR1 whole entry): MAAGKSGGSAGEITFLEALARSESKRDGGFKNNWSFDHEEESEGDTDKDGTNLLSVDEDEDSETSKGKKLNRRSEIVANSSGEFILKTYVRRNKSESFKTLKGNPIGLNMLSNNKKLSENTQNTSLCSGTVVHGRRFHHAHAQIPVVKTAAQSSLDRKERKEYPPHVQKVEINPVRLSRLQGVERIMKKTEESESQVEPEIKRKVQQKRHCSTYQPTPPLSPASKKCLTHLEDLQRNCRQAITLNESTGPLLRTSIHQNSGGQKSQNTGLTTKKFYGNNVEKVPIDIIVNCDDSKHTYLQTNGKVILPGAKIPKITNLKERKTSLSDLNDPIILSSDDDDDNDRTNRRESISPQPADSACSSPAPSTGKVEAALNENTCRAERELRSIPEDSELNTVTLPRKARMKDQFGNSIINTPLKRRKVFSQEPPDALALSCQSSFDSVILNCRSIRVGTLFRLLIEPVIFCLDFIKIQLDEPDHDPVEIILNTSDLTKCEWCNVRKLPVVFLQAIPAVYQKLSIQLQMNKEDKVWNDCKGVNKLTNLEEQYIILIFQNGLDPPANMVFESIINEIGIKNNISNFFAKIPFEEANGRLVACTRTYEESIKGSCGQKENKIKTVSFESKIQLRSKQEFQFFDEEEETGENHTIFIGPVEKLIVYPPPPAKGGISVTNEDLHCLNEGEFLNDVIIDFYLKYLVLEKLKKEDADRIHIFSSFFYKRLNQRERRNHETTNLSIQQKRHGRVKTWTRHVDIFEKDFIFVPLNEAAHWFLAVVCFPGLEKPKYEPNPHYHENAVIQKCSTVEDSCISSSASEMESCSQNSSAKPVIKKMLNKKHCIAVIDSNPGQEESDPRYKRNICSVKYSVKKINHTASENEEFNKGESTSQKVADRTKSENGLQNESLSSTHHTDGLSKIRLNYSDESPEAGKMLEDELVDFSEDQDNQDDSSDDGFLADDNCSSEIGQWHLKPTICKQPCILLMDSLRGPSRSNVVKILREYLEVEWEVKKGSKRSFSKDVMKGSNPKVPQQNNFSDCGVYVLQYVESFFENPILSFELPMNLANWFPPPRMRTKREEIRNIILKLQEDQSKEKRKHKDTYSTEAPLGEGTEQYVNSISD
# [6] = molecular target: T4, Sentrin-specific protease 8 (Homo sapiens, UniProt Q96LD8); format: functional;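 note: luminescence read-out of SENP8 inhibition, dose-response confirmation following an ultra-high-throughput screen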
# T4 sequence (Q96LD8 whole entry): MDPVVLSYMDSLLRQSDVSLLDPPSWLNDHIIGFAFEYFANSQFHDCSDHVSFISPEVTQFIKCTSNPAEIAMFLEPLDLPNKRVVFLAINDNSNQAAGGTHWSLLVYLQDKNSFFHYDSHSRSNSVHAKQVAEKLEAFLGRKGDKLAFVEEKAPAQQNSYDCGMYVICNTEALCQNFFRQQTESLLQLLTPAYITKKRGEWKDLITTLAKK
# [7] = test system: HeLa; assay: HeLa cell cytotoxicity, dose response, cytotoxicity control for MITF activator project, CellTiter-Glo luminescence, cherry-pick samples (AID 540259); format: functional, cell-based; details: Homo sapiens
# [8] = molecular target: Dual specificity protein kinase CLK1 (Homo sapiens, UniProt P49759); assay: CLK1 kinase inhibitors, off-target check, dose response, selectivity assay for Dyrk1A inhibitor project, biochemical, cherry-picked samples (AID 588811)
# Chain of Dual specificity protein kinase CLK1 (P49759 whole entry): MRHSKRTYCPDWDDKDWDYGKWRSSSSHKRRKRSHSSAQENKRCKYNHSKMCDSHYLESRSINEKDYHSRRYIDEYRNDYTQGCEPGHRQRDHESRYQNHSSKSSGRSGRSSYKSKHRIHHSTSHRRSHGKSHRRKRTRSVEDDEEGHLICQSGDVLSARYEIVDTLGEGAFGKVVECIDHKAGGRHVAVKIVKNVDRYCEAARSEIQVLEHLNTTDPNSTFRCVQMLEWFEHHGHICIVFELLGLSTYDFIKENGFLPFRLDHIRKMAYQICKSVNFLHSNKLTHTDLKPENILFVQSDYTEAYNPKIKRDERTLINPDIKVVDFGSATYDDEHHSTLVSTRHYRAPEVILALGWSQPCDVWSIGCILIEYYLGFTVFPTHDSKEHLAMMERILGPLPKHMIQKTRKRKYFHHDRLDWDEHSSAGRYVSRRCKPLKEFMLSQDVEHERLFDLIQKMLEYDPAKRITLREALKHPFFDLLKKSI
# [9] = molecular target: Dual specificity tyrosine-phosphorylation-regulated kinase 1A (Rattus norvegicus, UniProt Q63470); format: biochemical, Homo sapiens
# [10] = molecular target: T5, Endoribonuclease toxin MazF (Escherichia coli K-12, UniProt P0AE70); assay: MazF toxin RNase activators, dose response, biochemical, fluorescence, single-stranded RNA substrate, uHTS hits (AID 588481); format: functional
# T5 sequence (P0AE70 whole entry): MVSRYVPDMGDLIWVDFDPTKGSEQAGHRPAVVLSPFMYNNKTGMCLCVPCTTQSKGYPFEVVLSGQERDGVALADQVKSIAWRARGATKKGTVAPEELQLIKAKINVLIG
# [11] = molecular target: Delta-type opioid receptor (Homo sapiens, UniProt P41143); assay: Counterscreen for agonists of heterodimerization of the mu 1 (OPRM1) and delta 1 (OPRD1) opioid receptors: Luminescence-based cell-based high throughput dose response assay to identify agonists of OPRD1 homodimerization. [Related pubchem assays (depositor defined):AID504326, AID504355, AID504692, AID504904, AID504905]; format: functional
# Chain of Delta-type opioid receptor (P41143 whole entry): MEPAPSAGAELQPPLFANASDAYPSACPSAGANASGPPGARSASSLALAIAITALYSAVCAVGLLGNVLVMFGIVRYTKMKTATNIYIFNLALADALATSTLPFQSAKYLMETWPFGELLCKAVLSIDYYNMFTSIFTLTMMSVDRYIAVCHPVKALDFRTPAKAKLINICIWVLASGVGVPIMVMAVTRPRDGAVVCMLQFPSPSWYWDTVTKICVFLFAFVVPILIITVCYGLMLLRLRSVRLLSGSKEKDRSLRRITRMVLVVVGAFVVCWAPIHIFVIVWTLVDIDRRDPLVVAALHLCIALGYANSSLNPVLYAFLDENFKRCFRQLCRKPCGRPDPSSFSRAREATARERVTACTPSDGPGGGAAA
# [12] = molecular target: Mu-type opioid receptor (Homo sapiens, UniProt P35372); assay: Counterscreen for agonists of heterodimerization of the mu 1 (OPRM1) and delta 1 (OPRD1) opioid receptors: Luminescence-based cell-based high throughput dose response assay to identify agonists of OPRM1 homodimerization.; format: functional;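 note: U2OS cells expressing OPRM1 and beta-arrestin as split beta-galactosidase partners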
# [13] = molecular target: 5-hydroxytryptamine receptor 5A (Homo sapiens, UniProt P47898); assay: Counterscreen for agonists of OPRM1-OPRD1 heterodimerization: luminescence-based cell-based high throughput dose response assay to identify agonists of 5-hydroxytryptamine (serotonin) 5A receptor (HTR5A). [Related pubchem assays (depositor defined):AID504326, AID504355, AID504692, AID504904, AID504905]; format: functional
# [14] = molecular target: T5, Endoribonuclease toxin MazF; assay: fluorescent RNA oligo signal without MazF, dose response, counter-screen for MazEF activator project, biochemical, fluorescence, single-stranded RNase substrate (AID 588502); format: functional
# [15] = inhibitors of HIV Env-driven cell fusion, dose response, cherry-pick (AID 652057); format: functional, cell-based
# [16] = CEM21 lymphoblast cell cytotoxicity, dose response, cytotoxicity control for viral fusion inhibitor project, CellTiter-Glo luminescence, cherry-picked (AID 652042); format: functional, cell-based;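 note: potency for signal decrease meaning cytotoxicity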
# [17] = ZM109 Env clade C HIV-1 fusion inhibitors, dose response, HeLa effector, CEM target cells, luciferase, cherry-pick (AID 652058); format: functional, cell-based
# [18] = molecular target: Cytochrome P450 2C19 (Homo sapiens, UniProt P33261); assay: Cytochrome panel assay with activity outcomes. Panel member name: p450-cyp2c19 Compounds with AC50 equal or less than 10 uM are considered active; format: functional
# Chain of Cytochrome P450 2C19 (P33261 whole entry): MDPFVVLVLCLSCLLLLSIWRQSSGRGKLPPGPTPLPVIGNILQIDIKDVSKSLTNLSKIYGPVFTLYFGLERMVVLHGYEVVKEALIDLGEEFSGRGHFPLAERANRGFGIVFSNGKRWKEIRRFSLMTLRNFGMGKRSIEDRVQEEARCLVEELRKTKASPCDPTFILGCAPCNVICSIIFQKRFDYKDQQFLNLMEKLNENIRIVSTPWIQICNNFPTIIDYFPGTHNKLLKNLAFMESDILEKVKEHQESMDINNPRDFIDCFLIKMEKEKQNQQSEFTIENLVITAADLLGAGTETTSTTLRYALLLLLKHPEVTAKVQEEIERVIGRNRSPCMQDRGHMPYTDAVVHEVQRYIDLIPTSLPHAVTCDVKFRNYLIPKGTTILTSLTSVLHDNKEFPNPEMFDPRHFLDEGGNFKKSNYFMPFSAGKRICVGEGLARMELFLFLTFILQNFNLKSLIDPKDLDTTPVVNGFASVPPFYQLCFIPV
# [19] = molecular target: T6, Insulin-degrading enzyme (Homo sapiens, UniProt P14735); assay: activators of recombinant IDE enzyme, dose response, counter-screen for IDE activator project, biochemical, fluorescence polarization (AID 588681)
# T6 sequence (P14735 whole entry): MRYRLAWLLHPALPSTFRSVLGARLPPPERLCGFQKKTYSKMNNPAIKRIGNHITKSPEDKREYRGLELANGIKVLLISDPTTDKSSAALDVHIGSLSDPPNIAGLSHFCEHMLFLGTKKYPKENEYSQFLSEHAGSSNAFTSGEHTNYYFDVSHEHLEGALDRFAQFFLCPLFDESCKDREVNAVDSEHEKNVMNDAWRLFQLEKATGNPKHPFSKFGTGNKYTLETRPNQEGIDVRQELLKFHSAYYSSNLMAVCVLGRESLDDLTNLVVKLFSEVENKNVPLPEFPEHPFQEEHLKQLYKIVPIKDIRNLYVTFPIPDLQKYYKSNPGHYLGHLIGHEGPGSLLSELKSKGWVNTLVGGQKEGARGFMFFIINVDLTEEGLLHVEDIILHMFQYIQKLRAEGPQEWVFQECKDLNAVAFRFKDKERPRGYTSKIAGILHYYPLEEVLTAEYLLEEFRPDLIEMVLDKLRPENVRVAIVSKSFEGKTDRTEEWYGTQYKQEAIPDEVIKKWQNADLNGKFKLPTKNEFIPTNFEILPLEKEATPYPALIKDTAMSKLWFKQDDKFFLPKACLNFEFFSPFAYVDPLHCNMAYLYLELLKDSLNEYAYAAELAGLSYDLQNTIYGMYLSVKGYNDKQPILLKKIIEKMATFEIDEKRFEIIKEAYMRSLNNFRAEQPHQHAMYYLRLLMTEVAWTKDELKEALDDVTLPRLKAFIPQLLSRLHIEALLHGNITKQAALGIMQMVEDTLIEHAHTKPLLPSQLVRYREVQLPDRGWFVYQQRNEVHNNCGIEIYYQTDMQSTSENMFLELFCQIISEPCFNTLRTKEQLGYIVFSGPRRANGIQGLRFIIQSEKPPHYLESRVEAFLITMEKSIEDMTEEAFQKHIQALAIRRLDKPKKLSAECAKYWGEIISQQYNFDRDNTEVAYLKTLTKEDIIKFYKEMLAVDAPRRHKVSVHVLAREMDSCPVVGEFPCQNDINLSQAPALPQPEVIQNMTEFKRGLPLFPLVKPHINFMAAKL
# [20] = molecular target: T6, Insulin-degrading enzyme; assay: activators of endogenous IDE in HEK cells, dose response, cell-based, fluorescence polarization (AID 588439); format: functional
# [21] = test system: HEK293; assay: HEK cell cytotoxicity by LDH release, dose response, cytotoxicity control for IDE activator project, fluorescence, HEK cells (AID 588440); format: functional, cell-based; details: Homo sapiens;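 note: cytotoxicity by LDH release measuring loss of membrane integrity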
# [22] = test system: HEK293; assay: optical interference in Abeta FP readout, dose response, artefact control for IDE activator project, biochemical, fluorescence polarization (AID 588442); format: functional, cell-based; details: Homo sapiens
# [23] = molecular target: Beta-galactosidase (Escherichia coli, UniProt Q8VNN2); assay: PubChem AID 485352; format: functional
# Chain of Beta-galactosidase (Q8VNN2 whole entry): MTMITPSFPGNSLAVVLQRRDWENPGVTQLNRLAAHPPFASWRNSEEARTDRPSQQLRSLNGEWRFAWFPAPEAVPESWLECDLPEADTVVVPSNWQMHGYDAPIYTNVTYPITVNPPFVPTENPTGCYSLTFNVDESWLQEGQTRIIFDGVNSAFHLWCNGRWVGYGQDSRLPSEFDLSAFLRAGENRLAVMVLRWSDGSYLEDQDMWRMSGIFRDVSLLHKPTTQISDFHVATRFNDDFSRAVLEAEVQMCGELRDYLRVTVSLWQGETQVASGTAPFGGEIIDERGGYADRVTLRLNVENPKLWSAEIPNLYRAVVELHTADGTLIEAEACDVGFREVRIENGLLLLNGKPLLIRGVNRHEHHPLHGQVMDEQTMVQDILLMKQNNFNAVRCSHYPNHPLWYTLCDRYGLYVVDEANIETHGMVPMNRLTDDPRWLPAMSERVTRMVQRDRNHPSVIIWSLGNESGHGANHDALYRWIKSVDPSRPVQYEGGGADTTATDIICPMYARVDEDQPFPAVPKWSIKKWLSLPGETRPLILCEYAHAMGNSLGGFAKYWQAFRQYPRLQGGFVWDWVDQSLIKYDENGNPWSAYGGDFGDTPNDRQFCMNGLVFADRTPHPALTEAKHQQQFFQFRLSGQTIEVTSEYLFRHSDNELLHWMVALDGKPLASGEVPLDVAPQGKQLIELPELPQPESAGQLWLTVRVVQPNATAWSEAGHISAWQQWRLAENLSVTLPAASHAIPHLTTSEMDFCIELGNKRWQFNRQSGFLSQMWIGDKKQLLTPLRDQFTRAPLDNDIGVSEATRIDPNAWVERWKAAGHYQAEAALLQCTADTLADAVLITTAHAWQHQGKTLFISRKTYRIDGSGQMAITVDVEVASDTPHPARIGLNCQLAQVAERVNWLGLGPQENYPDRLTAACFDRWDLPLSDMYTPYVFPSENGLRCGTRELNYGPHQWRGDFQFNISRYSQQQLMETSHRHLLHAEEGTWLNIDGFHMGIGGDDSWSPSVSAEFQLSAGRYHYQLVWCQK
# [24] = molecular target: Type-1 angiotensin II receptor (Homo sapiens, UniProt P30556); assay: AT1 receptor antagonists, dose response, selectivity assay for APJ receptor antagonist project, cell-based, uHTS hits (AID 463214); format: functional;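 note: antagonist potency against angiotensin II stimulated AT1 response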
# Chain of Type-1 angiotensin II receptor (P30556 whole entry): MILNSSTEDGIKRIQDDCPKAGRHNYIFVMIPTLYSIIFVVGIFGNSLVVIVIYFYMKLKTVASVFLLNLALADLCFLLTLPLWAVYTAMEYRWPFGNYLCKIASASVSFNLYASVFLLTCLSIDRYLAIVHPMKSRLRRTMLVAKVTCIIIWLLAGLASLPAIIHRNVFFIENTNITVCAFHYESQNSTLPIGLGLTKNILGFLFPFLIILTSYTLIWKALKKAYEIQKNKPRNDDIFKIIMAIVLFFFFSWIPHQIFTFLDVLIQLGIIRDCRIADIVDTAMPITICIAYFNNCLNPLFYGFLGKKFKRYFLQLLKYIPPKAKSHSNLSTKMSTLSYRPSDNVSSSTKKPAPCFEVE
# [25] = molecular target: Phospholipase D1 (Homo sapiens, UniProt Q13393); assay: PLD1 inhibitor potency in cells, dose response (AID 602151); format: functional;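 note: cellular PLD1 assay in Calu-1 cells stimulated with PMA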
# Chain of Phospholipase D1 (Q13393 whole entry): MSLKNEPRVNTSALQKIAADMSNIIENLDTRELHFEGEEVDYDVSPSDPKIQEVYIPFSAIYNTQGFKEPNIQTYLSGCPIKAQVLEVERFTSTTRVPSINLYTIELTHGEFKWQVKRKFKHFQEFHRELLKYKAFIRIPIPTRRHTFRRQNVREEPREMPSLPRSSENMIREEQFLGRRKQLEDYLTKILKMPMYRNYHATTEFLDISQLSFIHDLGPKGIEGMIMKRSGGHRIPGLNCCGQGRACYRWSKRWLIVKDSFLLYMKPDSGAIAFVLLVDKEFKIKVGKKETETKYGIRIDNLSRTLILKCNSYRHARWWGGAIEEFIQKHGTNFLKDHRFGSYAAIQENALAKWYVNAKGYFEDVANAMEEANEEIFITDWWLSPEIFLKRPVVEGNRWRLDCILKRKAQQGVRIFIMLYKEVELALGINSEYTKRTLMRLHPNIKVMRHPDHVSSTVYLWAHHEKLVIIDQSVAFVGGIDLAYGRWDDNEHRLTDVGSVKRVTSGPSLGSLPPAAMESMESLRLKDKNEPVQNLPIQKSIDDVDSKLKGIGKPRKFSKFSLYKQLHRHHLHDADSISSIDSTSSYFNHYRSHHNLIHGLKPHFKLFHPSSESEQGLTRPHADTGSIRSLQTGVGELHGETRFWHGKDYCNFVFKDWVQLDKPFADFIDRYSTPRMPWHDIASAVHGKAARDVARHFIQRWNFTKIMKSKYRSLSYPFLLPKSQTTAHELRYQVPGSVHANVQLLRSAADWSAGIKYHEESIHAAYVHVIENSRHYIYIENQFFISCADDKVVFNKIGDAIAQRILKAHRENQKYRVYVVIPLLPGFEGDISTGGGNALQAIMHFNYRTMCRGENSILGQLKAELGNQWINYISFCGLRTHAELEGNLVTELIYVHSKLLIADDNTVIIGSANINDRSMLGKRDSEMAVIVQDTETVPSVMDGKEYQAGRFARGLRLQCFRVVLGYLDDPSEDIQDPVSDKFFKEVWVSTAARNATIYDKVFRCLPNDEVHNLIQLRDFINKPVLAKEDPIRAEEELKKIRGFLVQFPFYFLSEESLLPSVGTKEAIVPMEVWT
# [26] = molecular target: Phospholipase D2 (Homo sapiens, UniProt O14939); assay: PLD2 inhibitor potency in cells, dose response (AID 602147); format: functional;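 note: cellular assay in HEK293 cells overexpressing GFP-tagged PLD2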
# [27] = molecular target: T4, Sentrin-specific protease 8; assay: SENP8 protease inhibitors, SAR follow-up, biochemical, luminescence (AID 504501); format: functional
# [28] = molecular target: T1, Caspase-3; assay: SAR Analysis of small molecule inhibitors of Sentrin-specific proteases (SENPs) using a Caspase-3 Selectivity assay. [Related pubchem assays (depositor defined):AID2540, AID2599, AID434973, AID489001]; format: functional
# [29] = molecular target: T3, Sentrin-specific protease 6; assay: SAR Analysis of small molecule inhibitors of Sentrin-specific protease 6 (SENP6) using a Luminescent assay. [Related pubchem assays (depositor defined):AID2582, AID2599]; format: functional
# [30] = molecular target: T2, Sentrin-specific protease 7; assay: SENP7 protease inhibitors, SAR follow-up, biochemical, luminescence (AID 504497); format: functional
# [31] = molecular target: Voltage-gated inwardly rectifying potassium channel KCNH2 (Homo sapiens, UniProt Q12809); details: Potency;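 note: confirmatory quantitative high-throughput screen measuring inhibition of hERG channel activity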
smiles,measurement,setting,value
O=C(c1ccc(F)cc1)N1CCN(c2ccccn2)CC1,AC50,[1],53.2 µM (active)
same,AC50,[2],4.43 µM (active)
COC(=O)Nc1nnc(-c2ccccc2Cl)s1,IC50,[3],5.86 µM (active)
same,IC50,[4],5.89 µM (active)
same,IC50,[5],18.9 µM (active)
same,IC50,[6],23.6 µM (active)
same,AC50,[7],61.8 µM (active)
COc1cc(C(=O)Nc2cccc(-c3nncn3C)c2)cc(OC)c1OC,AC50,[8],21.6 µM (active)
same,AC50,[9],2.95 µM (active)
Nc1nonc1C(=O)NCCNCc1c(OCc2ccccc2F)ccc2ccccc12,EC50,[10],> 99 µM (inactive)
same,EC50,[11],74.8 µM (inactive)
same,EC50,[12],> 92.5 µM (inactive)
same,EC50,[13],> 92.5 µM (inactive)
same,EC50,[14],> 99 µM (inactive)
same,AC50,[15],0.922 µM (active)
same,AC50,[16],52.6 µM (active)
same,AC50,[17],14.1 µM (active)
O=C(/C=C/c1ccc(Cl)cc1)Nc1ccc(N2CCCCC2)cc1,AC50,[18],inconclusive
same,EC50,[19],> 54.7 µM (inactive)
same,EC50,[20],> 54.7 µM (inactive)
same,IC50,[21],> 89.2 µM (inactive)
same,EC50,[22],> 54.7 µM (inactive)
O=C(CCl)NNc1cccc(Cl)n1,EC50,[23],> 40 µM (inactive)
same,IC50,[24],2.72 µM (active)
C[C@@H](CN1CCC2(CC1)C(=O)NCN2c1ccc(F)c(F)c1)NC(=O)c1cc2ccccc2[nH]1,IC50,[25],0.003 µM (active)
same,IC50,[26],0.034 µM (active)
C(=C\c1nc(-c2cc3ccccc3cn2)no1)/c1ccccc1,IC50,[27],> 99 µM (inactive)
same,IC50,[28],> 99 µM (inactive)
same,IC50,[29],> 99 µM (inactive)
same,IC50,[30],> 99 µM (inactive)
Cc1ccccc1/C=C/C1=NCCN1 [METRAZOLINE OXALATE],AC50,[31],15.8 µM (inconclusive)
